Read-outs that look alike come from different tables or passages of the source. Marks after values point to notes of the source that are not given here.
Experiments:
(α4E92I)3(β2)2 nAChR [1] = biological target: T1, (α4E92I)3(β2)2 nAChR (Homo sapiens, UniProt P43681, E92I); assay: Two-electrode voltage-clamp of ACh-induced currents in Xenopus oocytes; assay type: cell-based; settings: 10 µM ACh + 1 µM LY2087101 vs 10 µM ACh alone
Experimental: (§1) For amino acid substitutions within the α4 nAChR subunit, point mutations were introduced into pSP64ployA plasmid with cDNA encoding for human α4 nAChR subunit with mutagenic primer pairs using the Quick Change II Site-Directed Mutagenesis Kit (Agilent Technologies) then confirmed by DNA sequencing (GENEWIZ, LLC, South Plainfield, NJ). cRNA transcripts suitable for oocyte expression were prepared in vitro from linearized plasmids [α3 (BamH1), α4 (AseI), β2 (PvuII), β4 (XhoI)] using mMESSAGE mMACHINE high yield capped RNA transcription kits (Ambion) and purified on NucAway Spin column (Invitrogen). cRNA concentration was determined by spectroscopy (Concentration (ug/ul) = Abs260 * 40), aliquoted and stored at −80 °C until used.
(§2) Ovarian lobules were surgically harvested from oocytes-positive female Xenopus laevis (NASCO, Fort Atkinson, WI) according to an animal use protocol approved by the Texas A&M Health Sciences Center Institutional Animals Care and Use Committee. The Texas A&M Health Sciences Center Research Facility is registered as an animal research facility with the United States Department of Agriculture and is fully accredited by the American Association for Accreditation of Laboratory Animal Care (AAALAC). For oocytes defolliculation, ovarian lobes were treated with 3 mg/ml collagenase type 2 (Worthington Biomedical, Lakewood, NJ) in Ca + 2-free buffer (85 mM NaCl, 2.5 mM KCl, 1 mM MgCl2, 5 mM HEPES, pH 7.6). Collagenase treatment was allowed to proceed for 3 hours at room temperature with gentle shaking then oocytes were washed several times with buffer to remove collagenase then with ND96-gentamicine buffer. Healthy Stage V and VI oocytes were visually selected and maintained at 18 °C in modified ND96-gentamicine buffer (96 mM NaCl, 2 mM KCl, 1.8 mM CaCl2, 1 mM MgCl2, 5 mM HEPES, 50 µg/ml gentamicin, pH 7.6). Oocytes were injected with 50–100 ng of the desired nAChR subunits cRNA mix at ratios of 8α:1β or 1α:8β to express nAChRs with subunit stoichiometries of 3α:2β (low agonist sensitivity) or 2α:3β (high agonist sensitivity), respectively.
(§3) Two-electrode voltage clamp recording of ACh-induced responses of Xenopus oocytes were performed 24–72 h following injection of nAChR subunit cRNA mix to ensure adequate nAChRs expression. Xenopus oocytes were placed in a custom-made recording chamber that is connected to eight channels automated perfusion system (Warner Instruments) and voltage-clamped at −50 mV using Oocyte Clamp OC-725B (Warner Instruments). Oocytes were continuously perfused with recording buffer (100 mM NaCl, 2 mM KCl, 1 mM CaCl2, 0.8 mM MgCl2, 1 mM EGTA, 10 mM Hepes, pH 7.5) except during periods of drug applications. […] Currents were digitized using Digidata 1550 A (Axon Instruments) and peak currents were quantified using pCLAMP 10 (Axon Instruments) then normalized and analyzed using Excels 2010 (Microsoft corporation) and SigmaPlot 11.0 (Systat Software).

(α4G67E)3(β2)2 nAChR = (α4G67E)3(β2)2 nAChR (Homo sapiens, UniProt P43681, G67E); assay: as above; assay type: cell-based; settings: 10 µM ACh + 1 µM LY2087101 vs 10 µM ACh alone
Chain of (α4G67E)3(β2)2 nAChR (P43681 29-627 G67E limits assumed): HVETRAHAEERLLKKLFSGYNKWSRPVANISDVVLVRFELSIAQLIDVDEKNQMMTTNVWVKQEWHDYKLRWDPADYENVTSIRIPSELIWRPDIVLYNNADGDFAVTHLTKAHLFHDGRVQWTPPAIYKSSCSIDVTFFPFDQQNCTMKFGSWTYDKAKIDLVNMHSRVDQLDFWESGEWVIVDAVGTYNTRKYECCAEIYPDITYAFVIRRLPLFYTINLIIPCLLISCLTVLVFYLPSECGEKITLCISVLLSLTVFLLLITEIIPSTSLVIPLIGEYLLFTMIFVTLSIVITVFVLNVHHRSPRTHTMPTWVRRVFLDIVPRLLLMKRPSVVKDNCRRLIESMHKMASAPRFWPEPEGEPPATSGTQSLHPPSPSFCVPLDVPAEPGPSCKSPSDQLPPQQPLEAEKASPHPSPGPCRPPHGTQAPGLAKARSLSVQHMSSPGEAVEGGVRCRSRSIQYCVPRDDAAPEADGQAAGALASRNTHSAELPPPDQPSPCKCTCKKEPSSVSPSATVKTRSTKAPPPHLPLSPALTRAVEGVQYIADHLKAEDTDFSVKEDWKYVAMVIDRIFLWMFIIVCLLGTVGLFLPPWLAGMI
Chain of (α4G67E)3(β2)2 nAChR (P17787 26-502 partner): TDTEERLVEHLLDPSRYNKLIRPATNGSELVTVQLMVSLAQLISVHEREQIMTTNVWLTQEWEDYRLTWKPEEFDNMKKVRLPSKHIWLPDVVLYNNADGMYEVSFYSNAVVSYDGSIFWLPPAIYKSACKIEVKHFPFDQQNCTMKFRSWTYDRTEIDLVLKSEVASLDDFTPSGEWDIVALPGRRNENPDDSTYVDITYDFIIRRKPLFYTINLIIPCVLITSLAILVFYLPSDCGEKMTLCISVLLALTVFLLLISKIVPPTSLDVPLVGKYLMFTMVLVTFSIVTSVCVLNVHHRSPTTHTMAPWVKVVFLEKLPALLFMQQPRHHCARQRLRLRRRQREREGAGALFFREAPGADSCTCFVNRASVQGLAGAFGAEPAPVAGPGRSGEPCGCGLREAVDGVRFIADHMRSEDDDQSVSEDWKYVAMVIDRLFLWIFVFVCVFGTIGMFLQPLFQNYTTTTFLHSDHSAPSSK
Experimental: as §1, §2, §3

(α4H94N)3(β2)2 nAChR = (α4H94N)3(β2)2 nAChR (Homo sapiens, UniProt P43681, H94N); assay: as above; assay type: cell-based; settings: 10 µM ACh + 1 µM LY2087101 vs 10 µM ACh alone
Chain of (α4H94N)3(β2)2 nAChR (P43681 29-627 H94N limits assumed): as the sequence (P43681 29-627 G67E limits assumed) above, with E39G, H66N counted along it
Chain of (α4H94N)3(β2)2 nAChR (P17787 26-502 partner): as the sequence (P17787 26-502 partner) above
Experimental: as §1, §2, §3

(α4L63I)3(β2)2 nAChR = (α4L63I)3(β2)2 nAChR (Homo sapiens, UniProt P43681, L63I); assay: as above; assay type: cell-based; settings: 10 µM ACh + 1 µM LY2087101 vs 10 µM ACh alone
Chain of (α4L63I)3(β2)2 nAChR (P43681 29-627 L63I limits assumed): as the sequence (P43681 29-627 G67E limits assumed) above, with L35I, E39G counted along it
Chain of (α4L63I)3(β2)2 nAChR (P17787 26-502 partner): as the sequence (P17787 26-502 partner) above
Experimental: as §1, §2, §3

(α4)3(β2)2 nAChR = biological target: T2, (α4)3(β2)2 nAChR (Homo sapiens, UniProt P17787+P43681); settings: cited from earlier work
T2 construct: expressed in transfected cells; host or cells: Xenopus laevis oocytes injected with cRNA
T2 sequence (P43681 29-627 limits assumed): as the sequence (P43681 29-627 G67E limits assumed) above, with E39G counted along it
T2 sequence (P17787 26-502): as the sequence (P17787 26-502 partner) above

(α4R65H)3(β2)2 nAChR = (α4R65H)3(β2)2 nAChR (Homo sapiens, UniProt P43681, R65H); set-up: method as in PMID 28446611; settings: 10 µM ACh + 1 µM dFBr vs 10 µM ACh alone; data reported previously ref 29; cited from earlier work
Chain of (α4R65H)3(β2)2 nAChR (P43681 29-627 R65H limits assumed): as the sequence (P43681 29-627 G67E limits assumed) above, with R37H, E39G counted along it
Chain of (α4R65H)3(β2)2 nAChR (P17787 26-502 partner): as the sequence (P17787 26-502 partner) above

(α4E92I)3(β2)2 nAChR [2] = biological target: T1, (α4E92I)3(β2)2 nAChR; set-up: method as in PMID 28446611; settings: 10 µM ACh + 1 µM dFBr vs 10 µM ACh alone; data reported previously ref 29; cited from earlier work
(α4R148E)3(β2)2 nAChR = (α4R148E)3(β2)2 nAChR (Homo sapiens, UniProt P43681, R148E); set-up: method as in PMID 28446611; settings: 10 µM ACh + 1 µM dFBr vs 10 µM ACh alone; data reported previously ref 29; cited from earlier work
Chain of (α4R148E)3(β2)2 nAChR (P43681 29-627 R148E limits assumed): as the sequence (P43681 29-627 G67E limits assumed) above, with E39G, R120E counted along it
Chain of (α4R148E)3(β2)2 nAChR (P17787 26-502 partner): as the sequence (P17787 26-502 partner) above

animal model [3] = tested on: animal model; set-up: method as in PMID 23712602, PMID 28446611, PMID 28809075, PMID 28105008; settings: cited from earlier work
animal model [4] = tested on: animal model; set-up: method as in PMID 23712602, PMID 28446611, PMID 28809075, PMID 28105008; settings: cited from earlier work; remark: listed apart in the source

T1 sequence (P43681 29-627 E92I limits assumed): as the sequence (P43681 29-627 G67E limits assumed) above, with E39G, E64I counted along it
T1 sequence (P17787 26-502 partner): as the sequence (P17787 26-502 partner) above

Compound	R, potentiation ratio (PR) ((α4E92I)3(β2)2 nAChR [1])	R, potentiation ratio (PR) ((α4G67E)3(β2)2 nAChR)	R, potentiation ratio (PR) ((α4H94N)3(β2)2 nAChR)	R, potentiation ratio (PR) ((α4L63I)3(β2)2 nAChR)	increase in ACh efficacy (Imax) by dFBr ((α4)3(β2)2 nAChR; ACh concentration-response curve)	dFBr maximal potentiation ((α4)3(β2)2 nAChR) [%]	R, potentiation ratio (PR) ((α4R65H)3(β2)2 nAChR)	R, potentiation ratio (PR) ((α4E92I)3(β2)2 nAChR [2])	R, potentiation ratio (PR) ((α4R148E)3(β2)2 nAChR)	nicotine self-administration (animal model [3])	nicotine withdrawal signs (animal model [4])
Cc1nc(Nc2ccc(F)cc2)sc1C(=O)c1ccsc1 [LY2087101, [2-[(4-Fluorophenyl)amino]-4-methyl-5-thiazolyl]-3-thienylmethanone]	10.9 ± 2.6	5.2 ± 0.7	5.2 ± 1.0	4.3 ± 0.4	–	–	–	–	–	–	–
C=CC(C)(C)c1[nH]c2cc(Br)ccc2c1CCNC [dFBr]	–	–	–	–	~ 4 fold	400	5.3 ± 1.8^a	9.3 ± 1.8^a	10.3 ± 2.4^a	reduce nicotine self-administration	reverse nicotine withdrawal signs

Source: publication PMC5775429, “LY2087101 and dFBr share transmembrane binding sites in the (α4)3(β2)2 Nicotinic Acetylcholine Receptor” (Scientific Reports, 2018)
